A word on the EC50: it is the concentration at which the effect is half-maximal. Low values mean an effect from little substance, high ones a need for much substance.

Assay [1] has as its target T1, human GLP-1 receptor (hGLP-1 R) (Homo sapiens, UniProt P43220).
T1 construct: expressed in transfected cells
Description: cAMP response of HEK-293 cells stably expressing human GLP-1 receptor (HTRF). Type of assay: cell-based. To be noted: Table 7; cAMP formation. The procedure:
(§1) cAMP content of cells was determined using a kit from Cisbio Corp. (cat. no. 62AM4PEC) based on HTRF (Homogenous Time Resolved Fluorescence). For preparation, cells were split into T175 culture flasks and grown overnight to near confluency in medium (DMEM/10% FBS). Medium was then removed and cells washed with PBS lacking calcium and magnesium, followed by proteinase treatment with accutase (Sigma-Aldrich cat. no. A6964). Detached cells were washed and resuspended in assay buffer (1×HBSS; 20 mM HEPES, 0.1% BSA, 2 mM IBMX) and cellular density determined. They were then diluted to 400000 cells/ml and 25 μl-aliquots dispensed into the wells of 96-well plates. For measurement, 25 μl of test compound in assay buffer was added to the wells, followed by incubation for 30 minutes at room temperature.

The target in assay [2] is T2, human glucagon receptor (hGLUC R) (Homo sapiens, UniProt P47871).
T2 construct: expressed in transfected cells
T2 sequence (P47871 26-477): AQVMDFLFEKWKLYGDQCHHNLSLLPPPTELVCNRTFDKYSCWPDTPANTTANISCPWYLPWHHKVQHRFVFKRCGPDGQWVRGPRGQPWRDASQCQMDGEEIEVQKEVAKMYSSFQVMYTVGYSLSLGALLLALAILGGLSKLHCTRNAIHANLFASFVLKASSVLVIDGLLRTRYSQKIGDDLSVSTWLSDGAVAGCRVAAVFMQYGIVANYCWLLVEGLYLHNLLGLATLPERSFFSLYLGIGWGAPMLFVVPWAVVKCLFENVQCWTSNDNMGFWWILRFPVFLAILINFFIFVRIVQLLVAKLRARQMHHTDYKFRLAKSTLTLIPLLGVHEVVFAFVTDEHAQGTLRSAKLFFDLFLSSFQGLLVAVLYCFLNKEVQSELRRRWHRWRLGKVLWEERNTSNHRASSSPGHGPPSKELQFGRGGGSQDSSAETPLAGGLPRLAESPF
Description: cAMP response of HEK-293 cells stably expressing human glucagon receptor (HTRF). Type of assay: cell-based. To be noted: Table 7; cAMP formation. The procedure: as §1
For orientation: In TR-FRET formats the signal depends on donor and acceptor labels being close together.

For assay [3], the target named is T3, human GIP receptor (hGIP R) (Homo sapiens, UniProt P48546).
T3 construct: expressed in transfected cells
T3 sequence (P48546 22-466): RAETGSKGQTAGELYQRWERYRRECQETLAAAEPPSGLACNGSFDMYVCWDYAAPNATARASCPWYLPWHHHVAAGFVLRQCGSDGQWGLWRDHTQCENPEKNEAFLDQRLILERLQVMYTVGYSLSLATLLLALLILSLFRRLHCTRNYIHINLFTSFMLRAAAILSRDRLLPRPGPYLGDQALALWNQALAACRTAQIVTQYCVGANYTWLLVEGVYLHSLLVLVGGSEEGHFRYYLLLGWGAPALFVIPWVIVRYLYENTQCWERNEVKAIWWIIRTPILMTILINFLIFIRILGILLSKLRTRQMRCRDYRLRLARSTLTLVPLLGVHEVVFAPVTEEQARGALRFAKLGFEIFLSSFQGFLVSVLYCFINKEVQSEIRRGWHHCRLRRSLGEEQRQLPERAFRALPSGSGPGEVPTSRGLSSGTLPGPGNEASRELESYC
Description: cAMP response of HEK-293 cells stably expressing human GIP receptor (HTRF). Type of assay: cell-based. As to conditions: Table 7; cAMP formation. How it is done:
as §1

The target in a further assay is human GLP-1 receptor (human, UniProt P43220 24-463). Description: cell-based or functional assay.
The next assay addresses human glucagon receptor (human, UniProt P47871 26-477). The experiment in a line: cell-based or functional assay.
Another assay addresses T4, human GIP receptor (human, UniProt P48546 22-466).
T4 sequence (looked up): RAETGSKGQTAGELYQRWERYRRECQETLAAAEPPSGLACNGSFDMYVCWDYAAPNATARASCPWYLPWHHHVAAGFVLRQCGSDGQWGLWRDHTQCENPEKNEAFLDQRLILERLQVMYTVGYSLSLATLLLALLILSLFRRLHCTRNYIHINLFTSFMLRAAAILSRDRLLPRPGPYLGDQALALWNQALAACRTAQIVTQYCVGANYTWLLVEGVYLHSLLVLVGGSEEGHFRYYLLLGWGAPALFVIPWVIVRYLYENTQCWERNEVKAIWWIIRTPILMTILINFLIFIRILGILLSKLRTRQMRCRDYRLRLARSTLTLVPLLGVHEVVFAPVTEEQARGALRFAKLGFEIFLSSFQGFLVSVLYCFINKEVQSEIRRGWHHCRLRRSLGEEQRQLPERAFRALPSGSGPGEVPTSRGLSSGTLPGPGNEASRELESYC
The experiment in a line: cell-based or functional assay.

*1 amine or outer side, *2 acyl side, *3 side chain or, on linkers, in order; H or OH if unused. Where a SMILES comes first, the peptide text is derived from it. Where no end group is shown, it is not given here. Side-chain parts run from the residue outwards. [ ]: non-standard residue; d: D form. The star is where a group is joined. γGlu = O=C(O)[C@H](CCC(=O)[*:2])N[*:1]; Stearoyl = CCCCCCCCCCCCCCCCCC(=O)*; Palmitoyl = CCCCCCCCCCCCCCCC(=O)*; Aib = CC(C)(N)C(=O)O

T1 sequence (P43220 24-463): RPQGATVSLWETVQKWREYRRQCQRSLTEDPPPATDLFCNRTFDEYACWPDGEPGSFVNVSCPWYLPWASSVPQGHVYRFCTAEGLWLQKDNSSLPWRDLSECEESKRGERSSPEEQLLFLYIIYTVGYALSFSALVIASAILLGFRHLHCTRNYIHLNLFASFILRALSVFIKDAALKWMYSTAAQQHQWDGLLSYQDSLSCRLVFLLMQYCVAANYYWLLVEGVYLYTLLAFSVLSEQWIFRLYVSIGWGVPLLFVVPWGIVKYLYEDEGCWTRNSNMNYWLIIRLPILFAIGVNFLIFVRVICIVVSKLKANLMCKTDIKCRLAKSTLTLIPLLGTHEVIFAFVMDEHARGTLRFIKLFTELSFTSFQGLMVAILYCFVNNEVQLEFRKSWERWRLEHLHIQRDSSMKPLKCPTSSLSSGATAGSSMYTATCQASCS
human glucagon receptor, sequence (P47871 26-477): as the sequence (P47871 26-477) above

Take `CCCCCCCCCCCCCCCC(=O)N[C@@H](CCC(=O)NCCCC[C@H](NC(=O)[C@H](CCC(N)=O)NC(=O)[C@@H](NC(=O)[C@H](CO)NC(=O)[C@H](CC(C)C)NC(=O)[C@H](CC(=O)O)NC(=O)[C@H](CO)NC(=O)[C@@H](NC(=O)[C@H](Cc1ccccc1)NC(=O)[C@@H](NC(=O)CNC(=O)[C@H](CCC(N)=O)NC(=O)C(C)(C)NC(=O)[C@@H](N)Cc1ccc(O)cc1)[C@@H](C)O)[C@@H](C)O)[C@@H](C)CC)C(=O)N[C@@H](CC(=O)O)C(=O)N[C@@H](CCCCN)C(=O)N[C@@H](CCCNC(=N)N)C(=O)N[C@@H](C)C(=O)N[C@H](C(=O)N[C@@H](CCC(N)=O)C(=O)N[C@@H](CC(C)C)C(=O)N[C@@H](Cc1ccccc1)C(=O)N[C@H](C(=O)N[C@@H](CCC(=O)O)C(=O)N[C@@H](Cc1c[nH]c2ccccc12)C(=O)N[C@@H](CC(C)C)C(=O)N[C@@H](CCCCN)C(=O)N[C@@H](CC(N)=O)C(=O)NCC(=O)NCC(=O)N1CCC[C@H]1C(=O)N[C@@H](CO)C(=O)N[C@@H](CO)C(=O)NCC(=O)N[C@@H](C)C(=O)N1CCC[C@H]1C(=O)N1CCC[C@H]1C(=O)N1CCC[C@H]1C(=O)N[C@@H](CO)C(N)=O)[C@@H](C)CC)C(C)C)C(=O)O` [SEQ ID NO: 47, Y-Aib-Q-G-T-F-T-S-D-L-S-I-Q-K(yE-x53)-DKRAVQLFIEWLKNGGPSSGAPPPS-NH2] (H-Y[Aib]QGTFTSDLSIQK([γGlu-Palmitoyl])DKRAVQLFIEWLKNGGPSSGAPPPS-NH2): the values for the half-maximal effective concentration (EC50) in assay [1] and in assay [2] were 15.6 pM and 2390 pM, respectively.

With `CCCCCCCCCCCCCCCC(=O)N[C@@H](CCC(=O)NCCCC[C@H](NC(=O)[C@H](CCC(N)=O)NC(=O)[C@@H](NC(=O)[C@H](CO)NC(=O)[C@H](CC(C)C)NC(=O)[C@H](CC(=O)O)NC(=O)[C@H](CO)NC(=O)[C@@H](NC(=O)[C@H](Cc1ccccc1)NC(=O)[C@@H](NC(=O)CNC(=O)[C@H](CCC(=O)O)NC(=O)C(C)(C)NC(=O)[C@@H](N)Cc1ccc(O)cc1)[C@@H](C)O)[C@@H](C)O)[C@@H](C)CC)C(=O)N[C@@H](CC(=O)O)C(=O)N[C@@H](CCCCN)C(=O)N[C@@H](CCCNC(=N)N)C(=O)N[C@@H](CCCCN)C(=O)N[C@@H](C)C(=O)N[C@@H](CCC(N)=O)C(=O)N[C@@H](CC(=O)O)C(=O)N[C@@H](Cc1ccccc1)C(=O)N[C@H](C(=O)N[C@@H](CCC(=O)O)C(=O)N[C@@H](Cc1c[nH]c2ccccc12)C(=O)N[C@@H](CC(C)C)C(=O)N[C@@H](CCCCN)C(=O)N[C@@H](CC(N)=O)C(=O)NCC(=O)NCC(=O)N1CCC[C@H]1C(=O)N[C@@H](CO)C(=O)N[C@@H](CO)C(=O)NCC(=O)N[C@@H](C)C(=O)N1CCC[C@H]1C(=O)N1CCC[C@H]1C(=O)N1CCC[C@H]1C(=O)N[C@@H](CO)C(N)=O)[C@@H](C)CC)C(=O)O` [SEQ ID NO: 54, Y-Aib-E-G-T-F-T-S-D-L-S-I-Q-K(yE-x53)-DKRKAQDFIEWLKNGGPSSGAPPPS-NH2] (H-Y[Aib]EGTFTSDLSIQK([γGlu-Palmitoyl])DKRKAQDFIEWLKNGGPSSGAPPPS-NH2), the EC50 is 66.8 pM in assay [1] and 2620 pM in assay [2].

Consider `CCCCCCCCCCCCCCCCCC(=O)N[C@@H](CCC(=O)NCCCC[C@H](NC(=O)[C@H](CCC(N)=O)NC(=O)[C@@H](NC(=O)[C@H](CO)NC(=O)[C@H](CC(C)C)NC(=O)[C@H](CC(=O)O)NC(=O)[C@H](CO)NC(=O)[C@@H](NC(=O)[C@H](Cc1ccccc1)NC(=O)[C@@H](NC(=O)CNC(=O)[C@H](CCC(=O)O)NC(=O)C(C)(C)NC(=O)[C@@H](N)Cc1ccc(O)cc1)[C@@H](C)O)[C@@H](C)O)[C@@H](C)CC)C(=O)N[C@@H](CCC(=O)O)C(=O)N[C@@H](CCC(=O)O)C(=O)N[C@@H](CCCNC(=N)N)C(=O)N[C@@H](C)C(=O)N[C@H](C(=O)N[C@@H](CCCNC(=N)N)C(=O)N[C@@H](CC(C)C)C(=O)N[C@@H](Cc1ccccc1)C(=O)N[C@H](C(=O)N[C@@H](CCC(=O)O)C(=O)N[C@@H](Cc1c[nH]c2ccccc12)C(=O)N[C@@H](CC(C)C)C(=O)N[C@@H](CCCCN)C(=O)N[C@@H](C)C(=O)NCC(=O)NCC(=O)N1CCC[C@H]1C(=O)N[C@@H](CO)C(=O)N[C@@H](CO)C(=O)NCC(=O)N[C@@H](C)C(=O)N1CCC[C@H]1C(=O)N1CCC[C@H]1C(=O)N1CCC[C@H]1C(=O)N[C@@H](CO)C(N)=O)[C@@H](C)CC)C(C)C)C(=O)O` [SEQ ID NO: 64, Y-Aib-E-G-T-F-T-S-D-L-S-I-Q-K(yE-x70)-EERAVRLFIEWLKAGGPSSGAPPPS-NH2] (H-Y[Aib]EGTFTSDLSIQK([γGlu-Stearoyl])EERAVRLFIEWLKAGGPSSGAPPPS-NH2), for which the EC50 in assay [2] was 75100 pM; in assay [3] it was 9.6 pM.

B1: exendin-4 peptide analogue SEQ ID NO: 37 (peptide)
peptide: Y[Aib]EGTFTSDLSIQK([γGlu-Palmitoyl])EERAAHEFIEWLKR[Aib]GPSSGAPPPS-NH2
modifications: N-terminus assumed
SMILES: CCCCCCCCCCCCCCCC(=O)N[C@@H](CCC(=O)NCCCC[C@H](NC(=O)[C@H](CCC(N)=O)NC(=O)[C@@H](NC(=O)[C@H](CO)NC(=O)[C@H](CC(C)C)NC(=O)[C@H](CC(=O)O)NC(=O)[C@H](CO)NC(=O)[C@@H](NC(=O)[C@H](Cc1ccccc1)NC(=O)[C@@H](NC(=O)CNC(=O)[C@H](CCC(=O)O)NC(=O)C(C)(C)NC(=O)[C@@H](N)Cc1ccc(O)cc1)[C@@H](C)O)[C@@H](C)O)[C@@H](C)CC)C(=O)N[C@@H](CCC(=O)O)C(=O)N[C@@H](CCC(=O)O)C(=O)N[C@@H](CCCNC(=N)N)C(=O)N[C@@H](C)C(=O)N[C@@H](C)C(=O)N[C@@H](Cc1c[nH]cn1)C(=O)N[C@@H](CCC(=O)O)C(=O)N[C@@H](Cc1ccccc1)C(=O)N[C@H](C(=O)N[C@@H](CCC(=O)O)C(=O)N[C@@H](Cc1c[nH]c2ccccc12)C(=O)N[C@@H](CC(C)C)C(=O)N[C@@H](CCCCN)C(=O)N[C@@H](CCCNC(=N)N)C(=O)NC(C)(C)C(=O)NCC(=O)N1CCC[C@H]1C(=O)N[C@@H](CO)C(=O)N[C@@H](CO)C(=O)NCC(=O)N[C@@H](C)C(=O)N1CCC[C@H]1C(=O)N1CCC[C@H]1C(=O)N1CCC[C@H]1C(=O)N[C@@H](CO)C(N)=O)[C@@H](C)CC)C(=O)O
In the case of B1, the “EC50 hGLP-1 R” value in the assay with human GLP-1 receptor stood at 6.6 pM. For the same molecule, in the assay with human glucagon receptor, the “EC50 hGLUC R” value amounted to 12100 pM. In the assay with human GIP receptor, the “EC50 hGIP R” value was found to be 12.1 pM.
